The values below come from patent US11912755B2, “Endostatin fragments and variants for use in treating fibrosis” (iBio, Inc., priority 2015, dated 2024).

In data set [1] the test system is TGF-β-induced dermal fibrosis in mouse skin. Briefly: In vivo TGF-β-induced dermal fibrosis in mouse skin. To be noted: 10 μg/ml intradermal with TGF-β 10 ng/ml; one week. The procedure:
In Vivo Mouse Experiments. CB57BL6/J male mice were purchased from The Jackson Laboratory (Bar Harbor, ME). Human rE (10 μg/ml) or Endostatin peptides (10 μg/ml) in combination with TGF-β (10 ng/ml), or TGF-β alone were injected intradermally on the back of mice in a total volume of 100 μl 1×PBS. Mice were injected in two different skin sites and sacrificed one week post-injection. Skin surrounding the injection site was harvested and fixed in 10% formalin prior to embedding in paraffin.
(§1) Measurement of Skin Dermal Thickness. Six μm sections of paraffin-embedded human and mouse skin tissues were stained with hematoxylin and eosin (H&E). In some experiments, sections were stained with Masson trichrome which identifies collagens. Images were taken on a Nikon Eclipse 800 microscope. The thickness of the dermis was measured in 6 random fields of each section using the image/J® software. Data are shown in arbitrary units.
E4, a peptide representing the carboxy terminus of human endostatin, can attenuate fibrosis triggered by multiple fibrogenic factors. The anti-fibrotic effects of E4 can be detected whether administered concomitantly with or following the fibrogenic trigger. The efficacy of E4 was confirmed in […] pre-clinical models of fibrosis: a) bleomycin-induced dermal fibrosis in vivo in mouse skin, b) TGF-β induced dermal fibrosis in mouse skin, and c) bleomycin-induced pulmonary fibrosis. E4 peptide or a control peptide (E1; representing the amino terminal region of endostatin) were administered at the same time as TGF-β or bleomycin or 3-4 days following TGF-β or bleomycin. Mice were sacrificed one and two weeks after TGF-β-initiation of dermal fibrosis, and two and three weeks after bleomycin-induced pulmonary fibrosis. Two different modes of administration of the E4 peptide were also tested. It was confirmed that intraperitoneal and intratracheal administration was effective. The amount of E4 that was administered was 10 μg/ml in a total volume of 100 μl for skin and IP injections and 50 μl for IT administration.
For these studies, fibrosis was assessed by measurement of dermal thickness on H&E skin sections (skin), assessment of collagen levels by Masson Trichrome staining (skin and lung), and measurement of collagen levels by Sircol assay (lung). Furthermore, to confirm the mechanism by which E4 exerts its anti-fibrotic effects, the production of extra-cellular matrix (ECM) components, the levels of enzymes that promote matrix stabilization and thus accumulation and levels of those that degrade ECM components, and levels of transcription factors downstream of the pro-fibrotic triggers were evaluated. Results were assessed using the unpaired t test and the 3-way ANOVA (for the ID1 data).

The next data set relates to human skin explants. Briefly: Ex vivo human skin assay, dermal thickness. It counts as cell-based. As for the experimental part: Ex vivo human skin assays. Human abdominal skin was obtained from corrective plastic surgery. As previously described (Yasuoka et al., The Open Rheumatol J 2008; 2:17-22), subcutaneous fat tissue was removed uniformly and skin tissue was cut into 1.5 cm×1.5 cm sections. The following were injected intradermally in a total volume of 100 μl 1×PBS: rE alone (1-10 μg/ml), endostatin peptides alone (10 μg/ml), rE or endostatin peptides (1-20 μg/ml) in combination with TGF-β (10 ng/ml), and TGF-β alone (10 ng/ml). In some experiments, human skin was first injected with TGF-β for 48 h followed by recombinant endostatin (rE) administration in the same injection site as TGF-β. Explants containing complete epidermal and dermal layers were cultured in an air liquid interface with the epidermal and keratin layers side up and exposed to air. The culture medium was replaced every other day. After 1 or 2 weeks, skin tissue corresponding to an area with 8-mm diameter centered around the injection site was harvested using disposable 8-mm ACUPUNCH® (Acuderm, Inc., Lauderdale, FL). Skin tissue was fixed in 10% formalin prior to embedding in paraffin.
as §1

Data set [2] relates to TGF-β-induced dermal fibrosis in mouse skin. The note with it: single dose concurrently with TGF-β; cited from earlier work.
A further data set has as its system rabbit ear scar model. To be noted: in vivo; cited from earlier work.
Data set [3] has as its system human primary lung fibroblasts. The note with it: adenovirally-expressed endostatin; fibroblasts pretreated with TGF-β; cited from earlier work.
The test system of data set [4] is patients with advanced solid tumors. The note with it: daily 1-hour intravenous infusion at doses up to 300 mg/m2; cited from earlier work.
Another data set concerns liver fibrosis model. The note with it: mouse, in vivo; cited from earlier work.
A further data set relates to IPF model. The note with it: rat, in vivo; cited from earlier work.
For data set [5], the system named is diabetes/renal fibrosis model. The note with it: rat, in vivo; cited from earlier work.

Take “E3: synthetic peptide, SEQ ID NO: 20, amino acids 133-180 of human endostatin (SYCETWRTEAPSATGQASSLLGGRLLGQSAASCHHAYIVLCIENSFMT; E3 amino acid sequence)”: the “TGF-β-induced dermal fibrosis (dermal thickness)” value in data set [1] is reported as “prevented”. For the same substance, in the data set with human skin explants (injected alone, no TGF-β, rE 1, 5, 10 μg/ml, peptides 10 μg/ml), the “dermal thickness, baseline effect” value is recorded as “tendency towards reduction”. In addition, the “development of fibrosis as measured by dermal thickness” value with human skin explants (peptides 10 μg/ml with 10 ng/ml TGF-β, vs TGF-β alone) is “significantly abolished”. In addition, the skin thickness result in data set [2] is reported as “significantly decreased skin”.
Turning to Endostatin, the injury parameters entry (with rabbit ear scar model; in the data set with liver fibrosis model; in the data set with IPF model; in data set [5]) was “reversed injury parameters” in each case. For the same substance, in data set [3], the “FN and Col1α1 protein levels” value is given as “endostatin markedly reduced”. In [4], the tolerability entry is reported as “well tolerated”.
